Values after ≈ are worked out from the molar mass of the structure shown.
Experiments:
Assay in all cases: Bacterial susceptibility testing (MIC, broth microdilution)
Format in all cases: cell-based
E. coli ATCC25922 = settings: cation adjusted Mueller-Hinton Broth, 35° C., 18-24 h; for MIC: Escherichia coli, ATCC25922, broth microdilution, read-out: E. coli ATCC25922 MIC
Procedure: (§1) Minimal inhibitory concentrations (MIC) were determined by the broth microdilution method in accordance with the Clinical and Laboratory Standards Institute (CLSI) guidelines. In brief, organism suspensions were adjusted to a final inoculum between 3×10^5 and 7×10^5 colony-forming units (CFU)/mL. Drug dilutions and inocula were made in sterile, cation adjusted Mueller-Hinton Broth (Beckton Dickinson). In wells, an inoculum volume of 100 μL was mixed to 2 μL of DMSO with 2-fold serial dilutions of drug. All inoculated microdilution trays were incubated in ambient air at 35° C. for 18-24 h. Following incubation, the lowest concentration of the drug that prevented visible growth (OD600 nm<0.05) was recorded as the MIC. Performance of the assay was monitored by the use of laboratory quality -control strains and compounds with defined MIC spectrum, in accordance with CLSI guidelines.

K. pneumoniae ATCC13883 = settings: cation adjusted Mueller-Hinton Broth, 35° C., 18-24 h; for MIC: Klebsiella pneumoniae, ATCC13883, broth microdilution, read-out: K. pneumoniae ATCC13883 MIC
Procedure: as §1

P. aeruginosa ATCC27853 = settings: cation adjusted Mueller-Hinton Broth, 35° C., 18-24 h; for MIC: Pseudomonas aeruginosa, ATCC27853, broth microdilution, read-out: P. aeruginosa ATCC27853 MIC
Procedure: as §1

P. aeruginosa PAO1 = settings: broth microdilution, cation adjusted Mueller-Hinton Broth, 35° C., 18-24 h; for MIC: Pseudomonas aeruginosa, PAO1, read-out: P. aeruginosa PAO1 MIC
Procedure: as §1

Row | SMILES | MIC (E. coli ATCC25922) [µg/mL] | MIC (K. pneumoniae ATCC13883) [µg/mL] | MIC (P. aeruginosa ATCC27853) [µg/mL] | MIC (P. aeruginosa PAO1) [µg/mL] | E. coli ATCC25922 MIC (E. coli ATCC25922; broth microdilution) [µg/mL] | K. pneumoniae ATCC13883 MIC (K. pneumoniae ATCC13883; broth microdilution) [µg/mL] | P. aeruginosa ATCC27853 MIC (P. aeruginosa ATCC27853; broth microdilution) [µg/mL] | P. aeruginosa PAO1 MIC (P. aeruginosa PAO1) [µg/mL]
1 | C[C@H](O)c1nccn1[C@@H](C#Cc1ccc(-c2ccc(OC3CN(CC#N)C3)cc2F)cc1)CO (single isomer, unassigned) [Compound 63] | 0.5 (≈ 1.09 µM) | 2 (≈ 4.34 µM) | 4 (≈ 8.69 µM) | 2 (≈ 4.34 µM) | – | – | – | –
2 | C[C@H](O)c1nccn1[C@@H](C#Cc1ccc(-c2ccc(NC3CN(CC#N)C3)cc2)cc1)CO (single isomer, unassigned) [Compound 66] | 1 (≈ 2.26 µM) | 4 (≈ 9.06 µM) | 4 (≈ 9.06 µM) | 2 (≈ 4.53 µM) | – | – | – | –
3 | C[C@H](O)c1nccn1[C@@H](C#Cc1ccc(-c2ccc(OC3CC4(C3)CN(CC#N)C4)cc2)cc1)CO (single isomer, unassigned) [Compound 67] | 0.5 (≈ 1.04 µM) | 4 (≈ 8.29 µM) | 4 (≈ 8.29 µM) | 2 (≈ 4.14 µM) | – | – | – | –
4 | C[C@H](O)c1nccn1[C@@H](C#Cc1ccc(-c2ccc(N[C@@H]3COC[C@H]3O)cc2)cc1)CO (single isomer, unassigned) [Compound 70] | 2 (≈ 4.61 µM) | 4 (≈ 9.23 µM) | 1 (≈ 2.31 µM) | 1 (≈ 2.31 µM) | – | – | – | –
5 | C[C@H](O)c1nccn1[C@@H](C#Cc1ccc(-c2ccc(O[C@@H]3C[S+]([O-])C[C@H]3O)cc2)cc1)CO (single isomer, unassigned) [Compound 74] | 4 (≈ 8.57 µM) | 4 (≈ 8.57 µM) | 2 (≈ 4.29 µM) | 2 (≈ 4.29 µM) | – | – | – | –
6 | C[C@H](O)c1nccn1[C@@H](C#Cc1ccc(-c2ccc(N3CC4(COC4)C3)cc2)cc1)CO (single isomer, unassigned) [Compound 75] | 0.25 (≈ 0.582 µM) | 1 (≈ 2.33 µM) | 4 (≈ 9.31 µM) | 2 (≈ 4.66 µM) | – | – | – | –
7 | CC(=O)N1CC(Nc2ccc(-c3ccc(C#C[C@@H](CO)n4ccnc4[C@H](C)O)cc3)cc2)C1 (single isomer, unassigned) [Compound 76] | 2 (≈ 4.5 µM) | 16 (≈ 36 µM) | 4 (≈ 9 µM) | 4 (≈ 9 µM) | – | – | – | –
8 | C[C@H](O)c1nccn1[C@@H](C#Cc1ccc(-c2ccc(N[C@H]3CCC[C@@H]3O)cc2)cc1)CO (single isomer, unassigned) [Compound 77] | 0.5 (≈ 1.16 µM) | 2 (≈ 4.63 µM) | 4 (≈ 9.27 µM) | 4 (≈ 9.27 µM) | – | – | – | –
9 | CNC(=O)CN1CC(Oc2ccc(-c3ccc(C#C[C@@H](CO)n4ccnc4[C@H](C)O)cc3)cc2)C1 (single isomer, unassigned) [Compound 100] | 1 (≈ 2.11 µM) | 2 (≈ 4.21 µM) | 2 (≈ 4.21 µM) | 2 (≈ 4.21 µM) | – | – | – | –
10 | C[C@H](O)c1nccn1[C@@H](C#Cc1ccc(-c2ccc(OC3CCN(CC#N)CC3)cc2)cc1)CO (single isomer, unassigned) [Compound 103] | 1 (≈ 2.13 µM) | 2 (≈ 4.25 µM) | 2 (≈ 4.25 µM) | 2 (≈ 4.25 µM) | – | – | – | –
11 | C[C@H](O)c1nccn1[C@@H](C#Cc1ccc(-c2ccc(CC3CN(CC#N)C3)cc2)cc1)CO (single isomer, unassigned) [Compound 105] | 1 (≈ 2.27 µM) | 1 (≈ 2.27 µM) | 4 (≈ 9.08 µM) | 4 (≈ 9.08 µM) | – | – | – | –
12 | C[C@H](O)c1nccn1[C@@H](C#Cc1ccc(-c2ccc(OC3COC3)cc2)cc1)CO (single isomer, unassigned) [Compound 107] | 0.25 (≈ 0.618 µM) | 0.5 (≈ 1.24 µM) | 4 (≈ 9.89 µM) | 2 (≈ 4.94 µM) | – | – | – | –
13 | C[C@H](O)c1nccn1[C@@H](C#Cc1ccc(-c2ccc(N3CCC3=O)cc2)cc1)CO (single isomer, unassigned) [Compound 109] | 0.62 (≈ 1.54 µM) | 1.5 (≈ 3.74 µM) | > 32 | 2 (≈ 4.98 µM) | – | – | – | –
14 | C[C@H](O)c1nccn1[C@@H](C#Cc1ccc(-c2ccc([C@H]3COC[C@@H]3O)cc2)cc1)CO (single isomer, unassigned) [Compound 115] | 1 (≈ 2.39 µM) | 1 (≈ 2.39 µM) | 8 (≈ 19.1 µM) | 2 (≈ 4.78 µM) | – | – | – | –
15 | CO[C@@H]1COC[C@H]1Oc1ccc(-c2ccc(C#C[C@@H](CO)n3ccnc3[C@H](C)O)cc2)cc1 (single isomer, unassigned) [Compound 125] | – | – | – | – | 1 | 2 | 8 | 2
16 | CO[C@@H]1COC[C@H]1Oc1ccc(-c2ccc(C#C[C@@H](CO)n3ccnc3[C@H](C)O)cc2)cc1 (single isomer, unassigned) [Compound 126] | 0.5 (≈ 1.11 µM) | 1 (≈ 2.23 µM) | 4 (≈ 8.92 µM) | 2 (≈ 4.46 µM) | – | – | – | –
17 | C[C@H](O)c1ccc(-c2ccc(C#C[C@@H](CO)n3ccnc3[C@H](C)O)cc2)cc1 (single isomer, unassigned) [Compound 134] | 1 (≈ 2.66 µM) | 8 (≈ 21.3 µM) | 8 (≈ 21.3 µM) | 4 (≈ 10.6 µM) | – | – | – | –

Continued, values first:

Row | MIC (E. coli ATCC25922) [µg/mL] | MIC (K. pneumoniae ATCC13883) [µg/mL] | MIC (P. aeruginosa ATCC27853) [µg/mL] | MIC (P. aeruginosa PAO1) [µg/mL] | E. coli ATCC25922 MIC (E. coli ATCC25922; broth microdilution) [µg/mL] | K. pneumoniae ATCC13883 MIC (K. pneumoniae ATCC13883; broth microdilution) [µg/mL] | P. aeruginosa ATCC27853 MIC (P. aeruginosa ATCC27853; broth microdilution) [µg/mL] | P. aeruginosa PAO1 MIC (P. aeruginosa PAO1) [µg/mL] | SMILES
18 | 1 (≈ 2.13 µM) | 4 (≈ 8.53 µM) | 4 (≈ 8.53 µM) | 2 (≈ 4.26 µM) | – | – | – | – | C[C@H](O)c1nccn1[C@@H](C#Cc1ccc(-c2ccc(O[C@H]3COC[C@@H]3O)cc2Cl)cc1)CO (single isomer, unassigned) [Compound 48]
19 | 0.5 (≈ 1.07 µM) | 1 (≈ 2.14 µM) | 4 (≈ 8.57 µM) | 2 (≈ 4.29 µM) | – | – | – | – | C[C@H](O)c1nccn1[C@@H](C#Cc1ccc(-c2ccc(CO[C@@H]3COC[C@H]3O)cc2F)cc1)CO (single isomer, unassigned) [Compound 49]
20 | 0.5 (≈ 1.07 µM) | 2 (≈ 4.29 µM) | 4 (≈ 8.57 µM) | 2 (≈ 4.29 µM) | – | – | – | – | C[C@H](O)c1nccn1[C@@H](C#Cc1ccc(-c2ccc(CO[C@H]3COC[C@@H]3O)cc2F)cc1)CO (single isomer, unassigned) [Compound 50]
21 | 1 (≈ 2.14 µM) | 2 (≈ 4.29 µM) | 8 (≈ 17.1 µM) | 2 (≈ 4.29 µM) | – | – | – | – | C[C@H](O)c1nccn1[C@@H](C#Cc1ccc(-c2ccc(O[C@@H]3CCOC[C@H]3O)c(F)c2)cc1)CO (single isomer, unassigned) [Compound 52]
22 | 1 (≈ 2.14 µM) | 4 (≈ 8.57 µM) | 8 (≈ 17.1 µM) | 4 (≈ 8.57 µM) | – | – | – | – | C[C@H](O)c1nccn1[C@@H](C#Cc1ccc(-c2ccc(O[C@H]3CCOC[C@@H]3O)c(F)c2)cc1)CO (single isomer, unassigned) [Compound 53]
23 | 1 (≈ 2.14 µM) | 4 (≈ 8.57 µM) | 8 (≈ 17.1 µM) | 4 (≈ 8.57 µM) | – | – | – | – | C[C@H](O)c1nccn1[C@@H](C#Cc1ccc(-c2ccc(O[C@@H]3CCOC[C@H]3O)cc2F)cc1)CO (single isomer, unassigned) [Compound 55]
24 | 1 (≈ 2.14 µM) | 2 (≈ 4.29 µM) | 8 (≈ 17.1 µM) | 2 (≈ 4.29 µM) | – | – | – | – | C[C@H](O)c1nccn1[C@@H](C#Cc1ccc(-c2ccc(O[C@H]3CCOC[C@@H]3O)cc2F)cc1)CO (single isomer, unassigned) [Compound 56]
25 | 1 (≈ 2.21 µM) | 4 (≈ 8.86 µM) | 2 (≈ 4.43 µM) | 2 (≈ 4.43 µM) | – | – | – | – | C[C@H](O)c1nccn1[C@@H](C#Cc1ccc(-c2ccc(NC3COC[C@@H]3O)cc2F)cc1)CO (single isomer, unassigned) [Compound 57]
26 | 1 (≈ 2.21 µM) | 4 (≈ 8.86 µM) | 4 (≈ 8.86 µM) | 4 (≈ 8.86 µM) | – | – | – | – | C[C@H](O)c1nccn1[C@@H](C#Cc1ccc(-c2ccc(NC3COC[C@H]3O)cc2F)cc1)CO (single isomer, unassigned) [Compound 58]
27 | 1 (≈ 2.21 µM) | 4 (≈ 8.86 µM) | 4 (≈ 8.86 µM) | 2 (≈ 4.43 µM) | – | – | – | – | C[C@H](O)c1nccn1[C@@H](C#Cc1ccc(-c2ccc(N[C@@H]3COC[C@H]3O)c(F)c2)cc1)CO (single isomer, unassigned) [Compound 59]
28 | 2 (≈ 4.43 µM) | 4 (≈ 8.86 µM) | 4 (≈ 8.86 µM) | 4 (≈ 8.86 µM) | – | – | – | – | C[C@H](O)c1nccn1[C@@H](C#Cc1ccc(-c2ccc(N[C@H]3COC[C@@H]3O)c(F)c2)cc1)CO (single isomer, unassigned) [Compound 60]
29 | 4 (≈ 8.53 µM) | 8 (≈ 17.1 µM) | > 32 | 16 (≈ 34.1 µM) | – | – | – | – | C[C@H](O)c1nccn1[C@@H](C#Cc1ccc(-c2ccc(O[C@@H]3COC[C@H]3O)c(Cl)c2)cc1)CO (single isomer, unassigned) [Compound 62]
30 | 1 (≈ 2.17 µM) | 2 (≈ 4.34 µM) | 8 (≈ 17.4 µM) | 8 (≈ 17.4 µM) | – | – | – | – | C[C@H](O)c1nccn1[C@@H](C#Cc1ccc(-c2ccc(OC3CN(CC#N)C3)c(F)c2)cc1)CO (single isomer, unassigned) [Compound 64]
31 | 4 (≈ 8.92 µM) | 8 (≈ 17.8 µM) | > 32 | 32 (≈ 71.3 µM) | – | – | – | – | Cc1cc(-c2ccc(C#C[C@@H](CO)n3ccnc3[C@H](C)O)cc2)ccc1O[C@@H]1COC[C@H]1O (single isomer, unassigned) [Compound 113]
32 | 4 (≈ 8.92 µM) | 8 (≈ 17.8 µM) | > 32 | 16 (≈ 35.7 µM) | – | – | – | – | Cc1cc(-c2ccc(C#C[C@@H](CO)n3ccnc3[C@H](C)O)cc2)ccc1O[C@H]1COC[C@@H]1O (single isomer, unassigned) [Compound 114]
33 | 0.5 (≈ 1.19 µM) | 2 (≈ 4.78 µM) | 4 (≈ 9.56 µM) | 1 (≈ 2.39 µM) | – | – | – | – | C[C@H](O)c1nccn1[C@@H](C#Cc1ccc(-c2ccc([C@@H]3COC[C@H]3O)cc2)cc1)CO (single isomer, unassigned) [Compound 116]
34 | 2 (≈ 4.46 µM) | 2 (≈ 4.46 µM) | 4 (≈ 8.92 µM) | 2 (≈ 4.46 µM) | – | – | – | – | C[C@H](O)c1nccn1[C@@H](C#Cc1ccc(-c2ccc(CO[C@@H]3COC[C@H]3O)cc2)cc1)CO (single isomer, unassigned) [Compound 123]

From patent publication US20260049092A1, “ANTIBACTERIAL COMPOUNDS” (Blacksmith Medicines, Inc., priority 2022, published 2026)
